This is an account of results in patent US5721240A, “9-substituted-8-unsubstituted-9-deazaguanines” (BioCryst Pharmaceuticals, Inc., priority 1996, dated 1998).

Like-named read-outs stand apart in the source and are kept apart here.

One assay concerns the target T1, PNP (Calf spleen) (Bos taurus, UniProt P55859).
T1 construct: using calf spleen as the enzyme source; from tissue; host or cells: calf spleen
T1 sequence (P55859 1-289): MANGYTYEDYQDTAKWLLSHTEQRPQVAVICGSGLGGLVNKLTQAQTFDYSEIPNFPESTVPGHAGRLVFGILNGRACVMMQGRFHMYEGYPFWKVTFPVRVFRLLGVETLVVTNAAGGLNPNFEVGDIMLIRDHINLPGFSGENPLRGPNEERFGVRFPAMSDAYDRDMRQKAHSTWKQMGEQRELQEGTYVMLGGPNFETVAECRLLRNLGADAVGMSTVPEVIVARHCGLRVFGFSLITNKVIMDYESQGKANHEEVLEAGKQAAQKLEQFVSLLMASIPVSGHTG
The experiment in a line: in vitro PNP inhibition assay (radiochemical, [14C]-hypoxanthine formation from [14C]-inosine). In kind it is biochemical.

Another assay relates to CCRF-CEM Cells. Description: 2'-deoxyguanosine potentiation assay (cell growth inhibition of CCRF-CEM cells with d-Guo). In kind it is cell-based. The settings on record: Homo sapiens, + 2'-d-Guanosine 5.62 uM, 72 hours. How it is done: The potentiation of the cell growth inhibitory activity (cytotoxicity) of 2'-deoxyguanosine (d-Guo) by the compounds of the invention is determined as follows: CCRF-CEM cells are grown in RPMI-1640 medium. To suspension cultures of these cells, d-Guo at a fixed concentration (5.62 μM) and the candidate PNP inhibitor at varied concentrations are added and the number of cells are determined in a Coulter counter 24, 48, and 72 hours thereafter. […] This method is similar to that previously used to determine the effectiveness of PNP inhibitors on potentiation of the toxicity of d-Guo [D. A. Shewach et al., Cancer Res., 46, 519 (1986); J. C. Sircar et al., Agents and Actions, 21, 253 (1987)].

In another assay the test system is plasma inosine. The experiment in a line: Effects on blood plasma levels of inosine in rats. In kind it is in vivo, Lewis rats. The note with it: i.p.; for Inosine Concentration: rat, 4 mg/kg. The method, then: An effective method of evaluating in vivo effects of PNP inhibitors is to evaluate the level of plasma nucleosides following the administration of inhibitor. In particular, it has been shown that certain PNP inhibitors, which increase blood plasma levels of inosine, were subsequently found to prolong skin allograf survival.
Control groups are used which receive only the vehicle. At specific times after administration, the animals are sacrificed and plasma samples are prepared. The plasma is extracted with cold 0.5 N HClO4 and neutralized with solid NH4 HCO3. After removal of perchlorate salts, the extract is subjected to HPLC on a reversed phase column (Spherisorb ODSI).

Setting [1] is: read-out: PNP (Calf spleen) IC50.
The mark [2] stands for this setting: 8-unsubstituted compounds, calf spleen enzyme, 50 mM phosphate, read-out: PNP (Calf spleen) IC50.
[3] abbreviates: 8-amino-substituted comparison compounds.

By IC50 is commonly meant the concentration that gives 50% inhibition. Regarding `Nc1nc2c(Cc3cccc(Cl)c3)c[nH]c2c(=O)[nH]1` [Example 1, 2-amino-3,5-dihydro-7-(3-chlorophenylmethyl)-4H-pyrrolo[3,2d-]pyrimidin-4-one], the IC50 at PNP (Calf spleen) stood at 0.14 µM; in the assay with CCRF-CEM Cells (8-unsubstituted compounds), 0.8 µM.
On to `Nc1nc2c(Cc3ccc(Cl)cc3)c[nH]c2c(=O)[nH]1` [Example 2d, 2-Amino-3,5-dihydro-7-(4-chlorophenylmethyl)-4H-pyrrolo[3,2-d]pyrimidin-4-one], for which the IC50 with CCRF-CEM Cells (8-unsubstituted compounds) was determined as 0.7 µM.
For `Nc1nc2c(Cc3ccsc3)c[nH]c2c(=O)[nH]1` [Example 2l, 2-Amino-3,5-dihydro-7-(3-thienylmethyl)-4H-pyrrolo-[3,2-d]pyrimidin-4-one], the IC50 on PNP (Calf spleen) (setting [1]) worked out at 0.08 µM; with CCRF-CEM Cells (8-unsubstituted compounds) it was 2 µM.
As for `Nc1nc(O)c2[nH]cc(Cc3ccccc3Cl)c2n1` [Example 2m, 2-Amino-3,5-dihydro-7-(2-chlorophenylmethyl)-4H-pyrrolo[3,2-d]pyrimidin-4-one], the half-maximal inhibitory concentration (IC50) on PNP (Calf spleen) (setting [2]) came out at 2.3 µM.
`Nc1nc2c(Cc3ccco3)c[nH]c2c(=O)[nH]1` [Example 2j, 2-Amino-3,5-dihydro-7-(2-furanylmethyl)-4H-pyrrolo-[3,2-d]pyrimidin-4-one]: the concentration for half-maximal inhibition (IC50) was found to be 0.31 µM at PNP (Calf spleen) (setting [1]) and 2.3 µM with CCRF-CEM Cells (8-unsubstituted compounds).
In the case of `Nc1nc2c(Cc3ccsc3)c(N)[nH]c2c(=O)[nH]1` [Example 3-Thienyl, reference compound], the IC50 with CCRF-CEM Cells (setting [3]) is over 20 µM.
Regarding `Nc1nc2c(Cc3ccccc3)c(N)[nH]c2c(=O)[nH]1` [Phenyl, reference compound], the IC50 against PNP (Calf spleen) was 7.7 µM; in the assay on CCRF-CEM Cells (setting [3]), over 15 µM.
Consider `Nc1nc2c(Cc3ccc(Cl)c(Cl)c3)c[nH]c2c(=O)[nH]1` [Example 2i, 2-Amino-3,5-dihydro-7-(3,4-dichlorophenylmethyl)-4H-pyrrolo[3,2-d]pyrimidin-4-one], for which the 50% inhibitory concentration (IC50) on PNP (Calf spleen) (setting [2]) came to 1 µM.
Take `Nc1nc2c(Cc3cccc(O)c3)c[nH]c2c(=O)[nH]1` [Example 3b, 2-amino-3,5-dihydro-7-(3-hydroxyphenylmethyl)-4H-pyrrolo[3,2-d]pyrimidin-4-one]: the 50% inhibitory concentration (IC50) with CCRF-CEM Cells (8-unsubstituted compounds) came out at 1.7 µM.
On the same count and under the same terms, for `Nc1nc2c(Cc3cccs3)c[nH]c2c(=O)[nH]1` [Example 2k, 2-Amino-3,5-dihydro-7-(2-thienylmethyl)-4H-pyrrolo-[3,2-d]pyrimidin-4-one] the value was 0.3 µM.
For `Nc1nc2c(Cc3cccc(C(F)(F)F)c3)c[nH]c2c(=O)[nH]1` [Example 2h, 2-Amino-3,5-dihydro-7-(3-trifluoromethylphenylmethyl)-4H-pyrrolo[3,2-d]pyrimidin-4-one], the IC50 on PNP (Calf spleen) (setting [2]) was 0.25 µM.
Turning to `Nc1nc2c(Cc3ccccc3)c[nH]c2c(=O)[nH]1` [Example 2c, 2-Amino-3,5-dihydro-7-(phenylmethyl)-4H-pyrrolo-[3,2-d]pyrimidin-4-one], the IC50 with CCRF-CEM Cells (8-unsubstituted compounds) was determined as 0.6 µM. In addition, in the assay with plasma inosine (Lewis rats, summary in words), the “increase in plasma inosine” value is reported as “significant increase in plasma inosine”. Moreover, the “Inosine Concentration” value is given as 3 μMO in the assay on plasma inosine (0.50 hrs, Exp 1); 10 μMO in the assay with plasma inosine (0.50 hrs, Exp 3); 7 μMO in the assay with plasma inosine (1.0 hrs, Exp 1); 7 μMO with plasma inosine (1.0 hrs, Exp 3); 6 μMO in the assay on plasma inosine (1.5 hrs, Exp 3); 6 μMO in the assay on plasma inosine (1.5 hrs, Exp 7, listed as SRI 7109, 4 mg/kg). Moreover, the “Inosine Concentration” value with plasma inosine (2.0 hrs, Exp 3) was found to be 4 μMO; in the assay with plasma inosine (3.0 hrs, Exp 1), 4 μMO; in the assay with plasma inosine (3.0 hrs, Exp 3) it was 6 μMO; with plasma inosine (3.0 hrs, Exp 7, listed as SRI 7109, 4 mg/kg), 6 μMO; with plasma inosine (4.0 hrs, Exp 2), 3 μMO; in the assay with plasma inosine (5.0 hrs, Exp 2) it was 2 μMO. For the same compound, the “Inosine Concentration” value in the assay on plasma inosine (6.0 hrs, Exp 2) amounted to 0.5 μMO; with plasma inosine (8.0 hrs, Exp 2), 0.6 μMO; in the assay on plasma inosine (10.0 hrs, Exp 2) it was 0.3 μMO; with plasma inosine (24 hrs, Exp 1) it was 0.3 μMO.
Consider `Nc1nc2c(Cc3ccccc3O)c[nH]c2c(=O)[nH]1` [Example 3c, 2-amino-3,5-dihydro-7-(2-hydroxyphenylmethyl)-4H-pyrrolo[3,2-d]pyrimidin-4-one], for which the IC50 on PNP (Calf spleen) (setting [2]) came to 1.95 µM.
